Values after ≈ are worked out from the molar mass of the structure shown. Where only a bound is given, the exact number is not on record here.

For the series the following is noted: buffer; pH 7.4; 200.0 µM.
What is called solubility (kinetic) is the concentration staying in solution when a stock, usually in DMSO, is diluted into the medium. With `Cc1ccc(NC(=O)c2ccco2)nc1`, the kinetic solubility was determined as 28.9 µg/mL (≈ 143 µM).
Then `CCc1nc2sc3ccccc3c(=O)c2c(=O)n1Cc1ccc(OC)cc1`, with 0.8 µg/mL (≈ 2.11 µM); and `COc1ccc2[nH]cc(CCNS(=O)(=O)c3ccc(C)cc3)c2c1`, with 50.6 µg/mL (≈ 147 µM); and `CCOCCCNC(=O)c1c[nH]c2ccc(OCC)cc2c1=O`, with 31.4 µg/mL (≈ 98.6 µM).
`CCCNC(=S)N1CCCC(c2nc3ccccc3[nH]2)C1` (stereo not drawn) had a kinetic solubility of 13.4 µg/mL (≈ 44.3 µM).
On to `Clc1ccc2c(c1)Nc1ccccc1CC2`, for which the kinetic solubility was < 0.5 µg/mL.
Then `Cc1cccc(NC(=S)N2CCC(O)CC2)c1C`, with 36.5 µg/mL (≈ 138 µM).
On to `Cc1cccc(/N=C/C2=C(O)CC(C)(C)CC2=O)n1`, for which the solubility (kinetic) is > 38.7 µg/mL.
Take `CC1(C)C(C(=O)O)N2C(=O)C(NC(=O)Cc3ccccc3)C2S1=O.O` (stereo not drawn): the solubility (kinetic) turned out to be 38.7 µg/mL.
As for `O=C(c1ccc(NC(=O)C2(c3ccccc3)CCCC2)cc1)N1CCOCC1`, the solubility (kinetic) was > 56.8 µg/mL.
The figure for `O=C1COc2ccc(NC(=O)c3ccccc3C(=O)O)cc2N1` is 40.5 µg/mL (≈ 130 µM).
`Cc1ccc2nc(SCC(=O)NC3CCCC3)[nH]c2c1` returned a kinetic solubility of 36.1 µg/mL (≈ 125 µM).
The figure for `Cc1ccc(C2SCC(=O)N2Cc2ccccc2)cc1` (stereo not drawn) is 21.9 µg/mL (≈ 77.3 µM); for `COc1ccc(C(CNc2ncnc3sccc23)N(C)C)cc1OC` (stereo not drawn) it is 35.5 µg/mL (≈ 99 µM).
Then `CSc1ncccc1C(=O)Nc1nccs1`, with > 37.7 µg/mL; and `Cc1ccc(C(=O)NCCNC(=O)Cc2ccccc2)cn1`, with > 44.6 µg/mL.
The figure for `CC1(C)CN(C(Cc2ccccc2)C(N)=O)C1=O` (stereo not drawn) is > 36.9 µg/mL; for `CCOc1ccccc1N1CCN(C(=O)NCc2ccc(C)cc2)CC1` it is > 53 µg/mL.
As to `CCn1c(=S)[nH]c2sc3c(c2c1=O)CCCC3`, the solubility (kinetic) is 9.2 µg/mL (≈ 34.5 µM).
The figure for `Cc1ccccc1OCCn1c(=S)[nH]c2ccccc21` is 0.5 µg/mL (≈ 1.76 µM); for `Cc1noc(NS(=O)(=O)c2ccc(NC(=O)c3ccccc3NS(=O)(=O)c3ccc(F)cc3)cc2)c1C` it is > 81.7 µg/mL; for `CC1=C(C(=O)OC2CCCCC2)C(c2ccccc2F)NC(=O)N1` (stereo not drawn) it is 0.5 µg/mL (≈ 1.5 µM).
Then `CCNC(=O)C12CCC(C)(C(=O)O1)C2(C)C` (stereo not drawn), with 31.8 µg/mL (≈ 141 µM); and `O=C(Nc1cccc(F)c1)NC1CCCCCCC1`, with 9 µg/mL (≈ 34 µM).
`O=C(Cc1ccc(Cl)cc1)NCC(=O)N1CCCCC1` registered a solubility (kinetic) of 39.7 µg/mL (≈ 135 µM).
Then `Cc1ccc(CNC(=O)C2CCC(=O)N2C(C)C)cc1` (stereo not drawn), with > 41.2 µg/mL; and `NC(=O)C1CCN(C(=O)c2ccc(Oc3cc(Cl)cc(Cl)c3)o2)CC1`, with 55.4 µg/mL (≈ 145 µM).
With `Cc1ccc(O)c(Nc2nc(-c3ccccc3)nc3ccccc23)c1`, the kinetic solubility was < 0.2 µg/mL.
Then `Cc1cccc(NC(=O)/C(C#N)=C/c2ccc(Cl)cc2)n1`, with 0.6 µg/mL (≈ 2.02 µM); and `C=CCn1c(N)cc(=O)nc1SCC(=O)Nc1ccc(C)cc1`, with 14.8 µg/mL (≈ 44.8 µM); and `Cc1ccc(SCC(=O)OCC(=O)NCCc2ccc(S(N)(=O)=O)cc2)c(C)c1`, with 51.3 µg/mL (≈ 118 µM).
The figure for `O=C(NCc1ccco1)C1CC(c2ccc(Cl)c(Cl)c2)=NO1` (stereo not drawn) is 1.4 µg/mL (≈ 4.13 µM).
The figure for `Cc1cccc(NC(=S)NC2CCSc3ccccc32)c1` (stereo not drawn) is < 0.3 µg/mL; for `O=c1[nH]c(CSc2nc3ccccc3s2)nc2ccccc12` it is 1.5 µg/mL (≈ 4.61 µM); for `O=C(O)CCn1c(SCCOc2ccccc2F)nc2ccccc21` it is > 54.1 µg/mL.
Consider `CN(C(=O)Nc1ccccc1)C1CCCc2ccccc21` (stereo not drawn), for which the kinetic solubility is > 42.1 µg/mL.
The figure for `CC(C)(CO)CNC1CCCN(C2Cc3ccccc3C2)C1` (stereo not drawn) is 40.5 µg/mL (≈ 134 µM); for `COC(=O)c1cccc(N2C(=O)C3C4C=CC(CC4)C3C2=O)c1` (stereo not drawn) it is 9.2 µg/mL (≈ 29.5 µM); for `Cc1cccc(N2CCN(Cc3nc(CC4CC4)no3)CC2)n1` it is 41.1 µg/mL (≈ 131 µM).
The figure for `CCC(NC(=S)NCc1ccc(F)cc1)c1ccc(C(C)C)cc1` (stereo not drawn) is < 0.4 µg/mL; for `CCOc1ccc(NC(=O)CSc2nc(=O)n(Cc3cccnc3)c3c2CCC3)cc1` it is 4.8 µg/mL (≈ 11 µM); for `CCOC(=O)CC(c1ccc([N+](=O)[O-])cc1)n1c(C)ccc1C` (stereo not drawn) it is 32.9 µg/mL (≈ 104 µM).
Then `COC(=O)c1ccsc1NC(=O)CS(=O)(=O)c1ccccc1`, with > 50.9 µg/mL; and `Cc1nc(NC(=O)C2CC2)sc1C(=O)Nc1ccccc1Cl`, with 2.1 µg/mL (≈ 6.25 µM).
Turning to `Cc1ccc(C(C)C)c(OCCNC(=O)c2ccccc2O)c1`, the solubility (kinetic) is < 0.7 µg/mL.
Then `CCOC(=O)c1ccccc1NC(=O)Cc1ccc(S(=O)(=O)N2CCCC2)s1`, with 17.5 µg/mL (≈ 41.4 µM).
Then `Cn1ncc([N+](=O)[O-])c1C(=O)NC1CCCCC1`, with > 37.8 µg/mL; and `Cc1ccc(/C(O)=C2\C(=O)C(=O)N(C)C2c2cccc([N+](=O)[O-])c2)cc1` (stereo not drawn), with 51.5 µg/mL (≈ 146 µM); and `CCOCC(=O)Nc1cc(C)on1`, with 22.8 µg/mL (≈ 124 µM).
`O=C(Nc1ccccc1NC(=O)c1ccco1)c1ccccc1` returned a solubility (kinetic) of 17.1 µg/mL (≈ 55.8 µM).
The figure for `OCCCNc1nc(-c2ccc(Cl)cc2)nc2ccccc12` is 1.8 µg/mL (≈ 5.74 µM).
Then `CC(=O)c1cc2c(cc1NS(=O)(=O)c1ccc(F)cc1)OCO2`, with < 0.7 µg/mL; and `O=C(c1ccc([N+](=O)[O-])s1)N1CCN(c2ccccn2)CC1`, with 42.7 µg/mL (≈ 134 µM); and `CCCCOc1ccc(C(=O)NCCc2cccs2)cc1`, with 1.3 µg/mL (≈ 4.28 µM).
Then `O=C(COC(=O)Cn1cnc2ccccc2c1=O)Nc1ccccc1OC(F)F`, with 15.8 µg/mL (≈ 39.2 µM).
`COc1ccccc1Nc1c2c(nc3ccccc13)CCC2` registered a kinetic solubility of 37.4 µg/mL (≈ 129 µM).
Then `Cc1ccnc(NC(=O)C(C)N2C(=O)c3ccccc3C2=O)c1` (stereo not drawn), with 39.4 µg/mL (≈ 127 µM).
As to `O=C(Cc1ccc(O)cc1)NCCNC(=S)NCc1ccccc1`, the kinetic solubility worked out at 50.3 µg/mL (≈ 146 µM).
In turn, `O=C(Nc1ccc(Cl)c(Cl)c1)NC1CCS(=O)(=O)C1` (stereo not drawn) registered a solubility (kinetic) of 43.9 µg/mL (≈ 136 µM).
Consider `CCCOc1ccc(Cc2c(O)nc(N)[nH]c2=O)cc1C`, for which the kinetic solubility amounted to 15.6 µg/mL (≈ 53.9 µM).
Molecule `CC1CCC/C(=C\Nc2ccc(C(=O)O)c(O)c2)C1=O` (stereo not drawn) returned a solubility (kinetic) of 39.4 µg/mL (≈ 143 µM).
Then `C=C(C)c1ccccc1NC(=O)CCN1C(=O)c2ccccc2S1(=O)=O`, with > 55.6 µg/mL; and `Cc1ccc(NC(=O)c2ccc3c(c2)OCCO3)nc1`, with > 40.5 µg/mL.
`Clc1ccc(-c2cn3cc(Cl)ccc3n2)cc1`: the kinetic solubility was < 0.3 µg/mL.
With `COC(=O)C(c1ccccc1)C1(O)CC(C)N(C)CC1C` (stereo not drawn), the solubility (kinetic) was > 43.7 µg/mL.
The figure for `Cc1nc(N2CCCCC2)c2c(-c3cccs3)csc2n1` is 2.3 µg/mL (≈ 7.29 µM); for `CN1CCN(c2oc(-c3ccc([N+](=O)[O-])cc3)nc2C#N)CC1` it is 4.1 µg/mL (≈ 13.1 µM); for `C[C@@H](C(=O)Nc1nccs1)N1C(=O)C2CC=CCC2C1=O` (stereo partly drawn) it is 42.8 µg/mL (≈ 140 µM).
As for `CCc1nc2sc3c(c2c(=S)[nH]1)CC(C)(C)OC3`, the kinetic solubility amounted to 1.9 µg/mL (≈ 6.78 µM).
On to `CCc1c(C)nc(N2CCN(c3ccc(F)cc3)CC2)[nH]c1=O`, for which the kinetic solubility was determined as 2.1 µg/mL (≈ 6.64 µM).
The figure for `Cc1cc(-c2ccccc2)nc2c(Br)c(=O)[nH]n12` is > 45.6 µg/mL.
Then `COn1c(=O)c(-c2ccc(F)cc2)[n+]([O-])c2ccccc21`, with > 42.9 µg/mL; and `C[C@@H](C(=O)Nc1ccccc1N1CCOCC1)N1C(=O)C2CCCCC2C1=O` (stereo partly drawn), with > 57.8 µg/mL.

Source of the values: PubChem BioAssay AID1996.
